Data on twelve molecules can be found in patent US8236337B2, “Anti-microbial orthodontic compositions and appliances and methods of production and use thereof” (Selenium, Ltd., priority 2005, dated 2012).

One series deals with Biofilm formation. Nature of the series: Inhibition of biofilm formation by selenium compounds (Example 4). On the set-up: Percent inhibition of Biofilm formation: concentration or dose not given beside the values. It counts as cell-based.
The nature of series [1]: Superoxide radical generation by selenium modified bonding agent coated on a surface, measured by chemiluminescence; leaching check of soak water. The method, then: In this hydrophobic mixing experiment, a selenium compound comprising a CN protecting group [2-(selenocyanatoacetoxy)butoxyethyl methacrylate] was mixed with the bonding agent 2-(Acetoacetoxy)ethylmethacrylate (AAEMA) to a final selenium concentration of 5%. The selenium composition was then applied to a surface, such as a PMMA plastic or a human toenail (results with both surfaces were the same), preferably at a concentration of about 100 mg/cm^2. The ability of the selenium modified bonding agent to generate superoxide radicals was then measured by chemiluminescence, as shown in FIG. 1. In FIG. 1, “Crude 1” and “Crude 2” refer to a mixture of the selenium labeled material with AAEMA; “pure” refers to the pure selenium labeled compound (no AAEMA); “blank” refers to the AAEMA with no selenium; for “plastic removed”, the mixture-coated plastic was soaked in water, and then after removal of the plastic, the aqueous solution was tested for any selenium that may have come off.

On to 3,4-Bis(selenyl)2-hydroxy propanol, for which, in the series with Biofilm formation, the “Biofilm formation, log reduction” value is 8 logs and the “Percent inhibition of Biofilm formation” value is recorded as 100%.

In the case of `C=C(C)C(=O)OCCOCC(CC)OC(=O)C[Se]C#N` (centres unmarked) [2-(selenocyanatoacetoxy)butoxyethyl methacrylate], the “ability to generate superoxide radicals (chemiluminescence)” value in series [1] (mixed with AAEMA to final selenium concentration of 5%, coated on PMMA plastic or human toenail and dried) was “still demonstrating chemiluminescence”. In addition, the “leaching of selenium from coated plastic ("plastic removed" sample)” value in series [1] (mixture-coated plastic soaked in water, aqueous solution tested by chemiluminescence after removal of plastic) is “no significant leaching”.

As to 3,4-Bis(selenyl)propionic acid, in the series with Biofilm formation, the “Biofilm formation, log reduction” value was determined as 2 logs and the “Percent inhibition of Biofilm formation” value is 99%.

`c1ccc([Se][Se]c2ccccc2)cc1` [1,2-Bis(phenyl)diselenide]: in the series with Biofilm formation, the “Biofilm formation, log reduction” value amounted to 8 logs and the “Percent inhibition of Biofilm formation” value is 100%.

For `NCC[Se-].[Na+]` [Sodium 1-amino,2-seleno ethane], in the series on Biofilm formation, the “Biofilm formation, log reduction” value came to 3 logs and the “Percent inhibition of Biofilm formation” value was 99.9%.

`N#C[Se]CCN` [1-amino,2-selenocyanato ethane]: in the series on Biofilm formation, the “Biofilm formation, log reduction” value was 5 logs and the “Percent inhibition of Biofilm formation” value stood at 99.999%.

With 3,4-Bis(selenyl)ethanoic acid, in the series on Biofilm formation, the “Biofilm formation, log reduction” value is 8 logs and the “Percent inhibition of Biofilm formation” value is recorded as 100%.

For the molecule `CC(O)C(O)[Se]C#N` (centres unmarked) [1-selenocyanato,2-hydroxy propanol], in the series on Biofilm formation, the “Biofilm formation, log reduction” value is given as 8 logs and the “Percent inhibition of Biofilm formation” value came out at 100%.

Turning to `C=C(C)C(=O)OCCOC(=O)CC(C)OC(=O)CC[Se][Se]CCC(=O)OC(C)CC(=O)OCCOC(=O)C(=C)C` (centres unmarked) [3-[3-(2-{1-Methyl-2-[2-(2-methyl-acryloyloxy)-ethoxycarbonyl]-ethoxycarbonyl}-ethyldiselenyl)-propionyloxy]-butyric acid 2-(2-methyl-acryloyloxy)-ethyl ester], in the series on Biofilm formation, the “Biofilm formation, log reduction” value is recorded as 8 logs and the “Percent inhibition of Biofilm formation” value amounted to 100%.

Regarding `C1CCC(C[Se][Se]CC2CCCCC2)CC1` [1,2-Bis(cyclohexylmethyl)diselenide], the “Percent inhibition of Biofilm formation” value with Biofilm formation is on record as 98%.

`Cl.Cl.NCC[Se][Se]CCN` [Selenocystamine 2HCl]: in the series on Biofilm formation, the “Biofilm formation, log reduction” value stood at 5 logs and the “Percent inhibition of Biofilm formation” value turned out to be 99.999%.

Consider `CC(NC(=O)OCC1c2ccccc2-c2ccccc21)[Se]C#N` (centres unmarked) [Fmoc-1-amino,1-selenocyanato ethane], for which, in the series with Biofilm formation, the “Biofilm formation, log reduction” value is listed as 8 logs and the “Percent inhibition of Biofilm formation” value came out at 100%.
